Our source for the IC50 values is ChEMBL document CHEMBL2086254, “Synthesis and identification of novel indolo[2,3-a]pyrimido[5,4-c]carbazoles as a new class of anti-cancer agents” (Eur J Med Chem, 2012).

The structures appear in SMILES notation.

This test deals with Cyclin-dependent kinase 2 (Homo sapiens, UniProt P24941). Description: Inhibition of CDK2.

As to `Cn1c2ccccc2c2c3c(c4c5ccccc5n(CC(O)CO)c4c21)C(=O)NC3=O` (stereo unspecified), the IC50 (as a rule, the concentration that gives 50% inhibition) was < 60 nM.
